Assay results reported in patent publication US20030068808A1, “Methods for generating antibiotic resistant microbes and novel antibiotics” (priority 2001, published 2003).

Key:
Format in all cases: cell-based
[1] = test system: bacterial cells expressing the vector (pT7Ea); experiment: Overnight growth in antibiotic, vector control bacteria; conditions: overnight at 37° C., 10^7 cells in 5 ml LB broth plus antibiotic at 0.5X MIC
Method: (§1) Titration analysis found the following amounts to be effective in inhibiting bacterial growth in the presence of various compounds.
(§2) The next day, cultures were analyzed for cell growth in the presence or absence of antibiotics.

BL21 cells = experiment: Half minimum inhibitory concentrations (MIC) on BL21 cells, titration analysis; conditions: half minimum inhibitory concentration on BL21 cells
[2] = test system: bacterial cells expressing pT7PMS134/V5; experiment: Overnight growth in antibiotic, MMR defective bacteria expressing PMS2-134; conditions: overnight at 37° C., 10^7 cells in 5 ml LB broth plus antibiotic at 0.5X MIC
Method: as §1, §2

SMILES | Cell # (pT7Ea) [1] | 0.5X MIC (BL21 cells) [µg/mL] | Cell # (X10^9) (pT7PMS134V5) [2]
CN[C@H](CC(C)C)C(=O)N[C@H]1C(=O)N[C@@H](CC(N)=O)C(=O)N[C@H]2C(=O)N[C@H]3C(=O)N[C@H](C(=O)N[C@H](C(=O)O)c4cc(O)cc(O)c4-c4cc3ccc4O)[C@H](O)c3ccc(c(Cl)c3)Oc3cc2cc(c3O[C@@H]2O[C@H](CO)[C@@H](O)[C@H](O)[C@H]2O[C@H]2C[C@](C)(N)[C@H](O)[C@H](C)O2)Oc2ccc(cc2Cl)[C@H]1O [Vancomycin] | 0 | 250.0 | 
CCn1cc(C(=O)O)c(=O)c2ccc(C)nc21 [Nalidixic Acid] | 0 | 7.10 | 0.97 X10^9
CCn1cc(C(=O)O)c(=O)c2cc(F)c(N3CCNCC3)cc21 [Norfloxacin] | 0 | 0.13 | 1.40 X10^9
CN(C)[C@@H]1C(O)=C(C(N)=O)C(=O)[C@@]2(O)C(O)=C3C(=O)c4c(O)cccc4[C@@](C)(O)[C@H]3C[C@@H]12 [Tetracycline] | 0 |  | 1.10 X10^9
CC1COc2c(N3CCN(C)CC3)c(F)cc3c(=O)c(C(=O)O)cn1c23 (stereo not shown) [Ofloxacin] | 0 | 0.13 | 1.20 X10^9
